Measured values as given in patent US20240400531A1, “HERBICIDAL MALONAMIDES CONTAINING A CONDENSED RING SYSTEM” (BASF SE, priority 2021, published 2024).

Tests used:
APESV = assay: greenhouse pre-emergence herbicidal test; assay type: in vivo, Apera spica-venti; conditions: pre-emergence method, application rate 0.250 kg/ha, scale from 0 to 100
Text: (§1) The culture containers used were plastic flowerpots containing loamy sand with approximately 3.0% of humus as the substrate. The seeds of the test plants were sown separately for each species.
For the pre-emergence treatment, the active ingredients, which had been suspended or emulsified in water, were applied directly after sowing by means of finely distributing nozzles. The containers were irrigated gently to promote germination and growth and subsequently covered with transparent plastic hoods until the test plants had rooted. This cover caused uniform germination of the test plants, unless this had been impaired by the active ingredients.
(§2) Depending on the species, the test plants were kept at 10-25° C. or 20-35° C., respectively.
(§3) The test period extended over 2 to 4 weeks. During this time, the test plants were tended, and their response to the individual treatments was evaluated.
(§4) Evaluation was carried out using a scale from 0 to 100. 100 means no emergence of the test plants, or complete destruction of at least the aerial moieties, and 0 means no damage, or normal course of growth. A good herbicidal activity is given at values of 65 to <90 and a very good herbicidal activity is given at values of 90 to 100.

ECHCG = assay: greenhouse post-emergence herbicidal test; assay type: in vivo, Echinocloa crus-galli; conditions: post-emergence method, application rate 0.250 kg/ha, scale from 0 to 100
Text: as §1
(§5) For the post-emergence treatment, the test plants were first grown to a height of 3 to 15 cm, depending on the plant habit, and only then treated with the active ingredients which had been suspended or emulsified in water. For this purpose, the test plants were either sown directly and grown in the same containers, or they were first grown separately as seedlings and transplanted into the test containers a few days prior to treatment.
as §2, §3, §4

AMARE = assay: greenhouse post-emergence herbicidal test; assay type: in vivo, Amaranthus retroflexus; conditions: post-emergence method, application rate 0.250 kg/ha, scale from 0 to 100
Text: as §1, §5, §2, §3, §4

| SMILES | herbicidal activity against APESV (APESV) | herbicidal activity against ECHCG (ECHCG) | herbicidal activity against AMARE (AMARE) |
| --- | --- | --- | --- |
| COC(C(=O)Nc1cccc2occc12)C(=O)N[C@H]1C=C[C@@H](C(=O)OC(C)C)C1 (stereo partly drawn) [I.6, isopropyl (1S,4R)-4-[[3-(benzofuran-4-ylamino)-2-methoxy-3-oxo-propanoyl]amino]cyclopent-2-ene-1-carboxylate] | very good (a very good herbicidal activity is given at values of 90 to 100) | very good (a very good herbicidal activity is given at values of 90 to 100) |  |
| COC(C(=O)Nc1cccc2ocnc12)C(=O)N[C@H]1C=C[C@@H](C(=O)OC(C)C)C1 (stereo partly drawn) [I.11, isopropyl (1S,4R)-4-[[3-(1,3-benzoxazol-4-ylamino)-2-methoxy-3-oxo-propanoyl]amino]cyclopent-2-ene-1-carboxylate] |  |  | very good (a very good herbicidal activity is given at values of 90 to 100) |
